Measurements from US9676789B2, “Aminated derivative of homoharringtonine, preparation method therefor, and application thereof” (HANGZHOU BENSHENG PHARMACEUTICAL CO., LTD., priority 2011, dated 2017).
Values after ≈ are worked out from the molar mass of the structure shown.

Key:
MG63 (osteosarcoma) = assay: MTT solid tumor cell growth inhibition, 72 h; format: cell-based, human; settings: Homo sapiens, MG 63, 72 h; for IC50: read-out: IC50; for IC90: read-out: IC90
Experimental: (§1) Human solid tumor cell lines: Hep-2 ([…]), A549 (human lung cancer), CaES-17 (esophageal cancer cell), PC-3 (prostate cancer), CNE (nasopharyngeal carcinoma cell), and SK-OV-3 (ovarian cancer cell), all of which are purchased from China Center For Type Culture Collection; RKO (human colon adenocarcinoma cell), MGC 803 (human gastric cancer cell), MG63 (osteosarcoma) and U87 MG (malignant glioma cell), all of which are purchased from Fuxiang Bio-tech Co. Ltd., Shanghai, China; PANC-1 (pancreatic cancer), Huh7 (human liver cancer cell), Becap37 (human breast cancer cell), and Hela (human cervical cancer cell), all of which are donated by Cancer Research Institute of Zhejiang University, China.
(§2) Obtaining 4000 well-growing human solid tumor cells and inoculating them into wells of a 96-well cell culture plate. The culture medium is DMEM High Glucose cell culture medium containing 10% fetal bovine serum. The plate is placed in a carbon dioxide cell incubator (5% CO2) at 37° C. and incubating for 24 hours. After adding the homoharringtonine derivatives of different concentration and mixing uniformly, the plate is placed in a carbon dioxide cell incubator (5% CO2) at 37° C. and incubating for 72 hours. Then the viable cell concentration is determined by the MTT method and the cell viability (%) after drug treatment is calculated. In this experiment, the cell viability of control group (not treated with any compound) is set as 100%.

[1] = test system: PANC-1 (pancreatic cancer); assay: MTT solid tumor cell growth inhibition, 72 h; format: cell-based, human; settings: Homo sapiens, PANC-1, 72 h; for IC50: read-out: IC50; for IC90: read-out: IC90
Experimental: as §1, §2

[2] = test system: RPMI8226 (multiple myeloma); assay: MTT multiple myeloma cell growth inhibition, 72 h; format: cell-based, human; settings: Homo sapiens, RPMI-8226, RPMI8226, 72 h; for IC50: read-out: IC50; for IC90: read-out: IC90
Experimental: Multiple myeloma and lymphoma cell lines: RPMI8226 (multiple myeloma), purchased from Fuxiang Bio-tech Co. Ltd., Shanghai, China.
(§3) Obtaining 6000 well-growing leukemia cells and inoculating them into wells of a 96-well cell culture plate. The culture medium is the 1640 cell culture medium containing 10% fetal bovine serum. After adding the homoharringtonine derivatives of different concentrations and mixing uniformly, placing the plate in a carbon dioxide cell incubator (5% CO2) at 37° C. and incubating for 72 hours. Then the viable cell concentration is determined by the MTT method.

A549 (human lung cancer) = assay: MTT solid tumor cell growth inhibition, 72 h; format: cell-based; settings: Homo sapiens, A549, 72 h; for IC50: read-out: IC50; for IC90: read-out: IC90
Experimental: as §1, §2

[3] = test system: RKO (human colon adenocarcinoma cell); assay: MTT solid tumor cell growth inhibition, 72 h; format: cell-based; settings: Homo sapiens; for IC50: read-out: IC50; for IC90: read-out: IC90
Experimental: as §1, §2

[4] = test system: Huh7 (human liver cancer cell); assay: MTT solid tumor cell growth inhibition, 72 h; format: cell-based; settings: Homo sapiens, Huh-7, Huh7, 72 h; for IC50: read-out: IC50; for IC90: read-out: IC90
Experimental: as §1, §2

[5] = test system: Becap37 (human breast cancer cell); assay: MTT solid tumor cell growth inhibition, 72 h; format: cell-based; settings: Homo sapiens, Becap37, 72 h; for IC50: read-out: IC50; for IC90: read-out: IC90
Experimental: as §1, §2

[6] = test system: MGC 803 (human gastric cancer cell); assay: MTT solid tumor cell growth inhibition, 72 h; format: cell-based; settings: Homo sapiens, MGC 803, 72 h; for IC50: read-out: IC50; for IC90: read-out: IC90
Experimental: as §1, §2

[7] = test system: K562/adr (drug-resistant, chronic myeloid leukemia, CML); assay: MTT leukemia cell growth inhibition, 72 h; format: cell-based, human; settings: Homo sapiens, K562/Adr; for IC50: read-out: IC50; for IC90: read-out: IC90
Description: (§4) Leukemia cell lines: K562/adr (drug-resistant, chronic myeloid leukemia, CML), NB4 (acute promyelocytic leukemia, AML), Kasumi-1 (acute myeloid leukemia M2 type, AML-M2), Jurkat (acute lymphoblastic leukemia, ALL), all of which are donated by Cancer Research Institute of Zhejiang University, China; and H9 (acute lymphoblastic leukemia, ALL), which is purchased from China Center for Type Culture Collection.
as §3, with “method. In this experiment, the cell viability in control group (not treated with any compound) is set as 100%.” for “method.”

[8] = test system: Jurkat (acute lymphoblastic leukemia, ALL); assay: MTT leukemia cell growth inhibition, 72 h; format: cell-based, human; settings: Homo sapiens; for IC50: read-out: IC50; for IC90: read-out: IC90
Description: as §4
as §3, with “method. In this experiment, the cell viability in control group (not treated with any compound) is set as 100%.” for “method.”

[9] = test system: H9 (acute lymphoblastic leukemia, ALL); assay: MTT leukemia cell growth inhibition, 72 h; format: cell-based, human; settings: Homo sapiens, H9, 72 h; for IC50: read-out: IC50; for IC90: read-out: IC90
Description: as §4
as §3, with “method. In this experiment, the cell viability in control group (not treated with any compound) is set as 100%.” for “method.”

[10] = test system: Kasumi-1 (acute myeloid leukemia M2 type, AML-M2); assay: MTT leukemia cell growth inhibition, 72 h; format: cell-based, human; settings: Homo sapiens, Kasumi-1, 72 h; for IC50: read-out: IC50; for IC90: read-out: IC90
Description: as §4
as §3, with “method. In this experiment, the cell viability in control group (not treated with any compound) is set as 100%.” for “method.”

[11] = test system: NB4 (acute promyelocytic leukemia, AML); assay: MTT leukemia cell growth inhibition, 72 h; format: cell-based, human; settings: Homo sapiens, NB4, 72 h; for IC50: read-out: IC50; for IC90: read-out: IC90
Description: as §4
as §3, with “method. In this experiment, the cell viability in control group (not treated with any compound) is set as 100%.” for “method.”

[12] = test system: U87 MG (malignant glioma cell); assay: MTT solid tumor cell growth inhibition, 72 h; format: cell-based, human; settings: Homo sapiens, U-87 MG
Experimental: as §1, §2

Structure (SMILES) | IC50 (MG63 (osteosarcoma)) [µg/mL] | IC90 (MG63 (osteosarcoma)) [µg/mL] | IC50 [1] [µg/mL] | IC90 [1] [µg/mL] | IC50 [2] [µg/mL] | IC90 [2] [µg/mL] | IC50 (A549 (human lung cancer)) [µg/mL] | IC90 (A549 (human lung cancer)) [µg/mL] | IC50 [3] [µg/mL] | IC90 [3] [µg/mL] | IC50 [4] [µg/mL] | IC90 [4] [µg/mL] | IC50 [5] [µg/mL] | IC90 [5] [µg/mL] | IC50 [7] [µg/mL] | IC90 [7] [µg/mL] | IC50 [8] [µg/mL] | IC90 [8] [µg/mL] | IC50 [9] [µg/mL] | IC90 [9] [µg/mL] | further results
COC1=C[C@]23CCCN2CCc2cc4c(cc2[C@@H]3[C@@H]1OC(=O)[C@@](O)(CCCC(C)(C)O)CC(=O)N1CCN(CCO)CC1)OCO4 [BS-HH-020] | 14.1 (≈ 22 µM) | > 16 | > 16 | > 16 | 16 (≈ 24.9 µM) | > 16 | > 16 | > 16 | 8.38 (≈ 13 µM) | > 16 | > 16 | > 16 | > 16 | > 16 | > 16 | > 16 | 15.1 (≈ 23.5 µM) | > 16 | > 16 | > 16 | IC50 [6]: 7.5 µg/mL (≈ 11.6 µM); IC90 [6]: > 16 µg/mL; IC50 [10]: > 16 µg/mL; IC90 [10]: > 16 µg/mL; IC50 [11]: 7.46 µg/mL (≈ 11.6 µM); IC90 [11]: 15.8 µg/mL (≈ 24.5 µM)
COC1=C[C@]23CCCN2CCc2cc4c(cc2[C@@H]3[C@@H]1OC(=O)[C@@](O)(CCCC(C)(C)O)CC(=O)N1CCSCC1)OCO4 [BS-HH-014] | 6.24 (≈ 10.1 µM) | > 16 | 8 (≈ 13 µM) | > 16 | 2.43 (≈ 3.94 µM) | 16 (≈ 25.9 µM) | 9.79 (≈ 15.9 µM) | > 16 | 1.25 (≈ 2.03 µM) | 5.36 (≈ 8.69 µM) | 4 (≈ 6.49 µM) | > 16 | 6.89 (≈ 11.2 µM) | > 16 | > 16 | > 16 | 2 (≈ 3.24 µM) | > 16 | 8.25 (≈ 13.4 µM) | > 16 | IC50 [6]: 2.92 µg/mL (≈ 4.73 µM); IC90 [6]: 15.5 µg/mL (≈ 25.1 µM); IC50 [10]: 1.33 µg/mL (≈ 2.16 µM); IC90 [10]: 8.61 µg/mL (≈ 14 µM); IC50 [11]: 1.29 µg/mL (≈ 2.09 µM); IC90 [11]: 3.7 µg/mL (≈ 6 µM)
COC1=C[C@]23CCCN2CCc2cc4c(cc2[C@@H]3[C@@H]1OC(=O)[C@@](O)(CCCC(C)(C)O)CC(=O)NCc1cccs1)OCO4 [BS-HH-055] | 3.83 (≈ 6.11 µM) | 16 (≈ 25.5 µM) | 8 (≈ 12.8 µM) | > 16 | 2.1 (≈ 3.35 µM) | 16 (≈ 25.5 µM) | 11.2 (≈ 17.9 µM) | > 16 | 2.75 (≈ 4.39 µM) | 6.97 (≈ 11.1 µM) | 4.83 (≈ 7.71 µM) | > 16 | 5.9 (≈ 9.41 µM) | > 16 | 6.24 (≈ 9.96 µM) | 16 (≈ 25.5 µM) | 1.58 (≈ 2.52 µM) | 8 (≈ 12.8 µM) | 4 (≈ 6.38 µM) | 10.6 (≈ 17 µM) | IC50 ([12]; read-out: IC50): 6.54 µg/mL (≈ 10.4 µM); IC90 ([12]; read-out: IC90): > 16 µg/mL; IC50 [6]: 6.06 µg/mL (≈ 9.67 µM); IC90 [6]: 19 µg/mL (≈ 30.3 µM); IC50 [10]: 1.3 µg/mL (≈ 2.07 µM); IC90 [10]: 6.68 µg/mL (≈ 10.7 µM); IC50 [11]: 2.38 µg/mL (≈ 3.8 µM); IC90 [11]: 7.61 µg/mL (≈ 12.1 µM)
COC1=C[C@]23CCCN2CCc2cc4c(cc2[C@@H]3[C@@H]1OC(=O)[C@@](O)(CCCC(C)(C)O)CC(=O)N1CCOCC1)OCO4 [BS-HH-011] | 6.33 (≈ 10.5 µM) | > 16 | > 16 | > 16 | 6.71 (≈ 11.2 µM) | > 16 | > 16 | > 16 | 4 (≈ 6.66 µM) | > 16 | 16 (≈ 26.6 µM) | > 16 | 11.3 (≈ 18.8 µM) | > 16 | > 16 | > 16 | 6.7 (≈ 11.2 µM) | > 16 | > 16 | > 16 | IC50 [10]: 8.28 µg/mL (≈ 13.8 µM); IC90 [10]: > 16 µg/mL; IC50 [11]: 3.22 µg/mL (≈ 5.36 µM); IC90 [11]: 9.54 µg/mL (≈ 15.9 µM)
